{"source": "paper PMC12534982", "about": "(Journal of Experimental & Clinical Cancer Research : CR, 2025)", "type_in_all_cases": "cell-based, human", "key": {"colorectal cancer cells [1]": {"test_system": "colorectal cancer cells", "assay": "Cell proliferation assay (Trypan Blue exclusion)", "protocol": "Cancer cells (7.5 × 10^3) were cultured in 60-mm Petri dishes and treated with DMSO or NK-A 17E-233I (25 µM) to evaluate their proliferation at various time intervals (24 h, 48 h, 96 h, 120 h) using the Trypan Blue exclusion assay."}, "colorectal cancer cells [2]": {"test_system": "colorectal cancer cells", "assay": "Cleaved caspase-3 by flow cytometry", "details": "25 µM, 48 h", "protocol": "Cancer cells (3 × 10^4) were cultured in 48-well plates and treated with DMSO or NK-A 17E-233I (25 µM) for 48 h. Following treatment, the cells were harvested, and the supernatant was discarded. Cell pellets were resuspended in 4% methanol-free paraformaldehyde (PFA, #28908; Thermo Fisher Scientific) while vortexing and incubated in the dark at room temperature for 15 min. One milliliter of PBS was added to all tubes, followed by centrifugation at 500 × g for 5 min. The supernatant was discarded, and the pellets were permeabilized using 90% cold methanol with incubation on ice for 10 min. Subsequently, 1 mL of 0.5% BSA (#A3059; Sigma-Aldrich) was added, and the samples were centrifuged at 500 × g for 5 min. The supernatant was discarded, and the pellets were resuspended in 0.5% BSA. The anti–caspase-3 (p17, Cleaved-Asp175) primary antibody (#9661; Cell Signaling, dilution 1:800) was used to incubate samples at room temperature for 1 h. Afterwards, 0.5% BSA was added, and the tubes were centrifuged at 500 × g for 5 min. The supernatant was discarded, and the pellets were resuspended in 0.5% BSA. The samples were then incubated with F(ab')2-Goat anti-Rabbit IgG (H + L) Cross-Adsorbed Secondary Antibody, Alexa Fluor 633 (#A-21072; Invitrogen, dilution 1:1000) in the dark at room temperature for 30 min. […]"}, "SW620 cells": {"test_system": "SW620 cells", "assay": "Mitochondrial respiration (OCR) in intact cells", "details": "24 h", "protocol": "Oxygen consumption rate (OCR) was measured using a high-resolution respirometer (Oxygraph-2k, Oroboros Instruments, Innsbruck, Austria). SW620 cells (2.2 × 10^6) were cultured in 100-mm Petri dishes and treated with DMSO or NK-A 17E-233I (25 µM) for 24 h. Cells were harvested at 80% confluency using 0.25% trypsin/EDTA and resuspended in complete DMEM at a concentration of 5 × 10^5 cells/mL. The cells were subsequently analyzed in two 2 mL Oxygraph chambers. Real-time measurements of OCR were conducted at 37 °C under basal conditions and following the sequential addition of inhibitors targeting various mitochondrial respiratory complexes: oligomycin (2.5 μM) to inhibit complex V (to assess ATP-linked respiration and leak rate), carbonyl cyanide-p-trifluoromethoxyphenylhydrazone (FCCP) with stepwise titration in 0.5 μM increments (to evaluate maximal electron transport system respiratory capacity and reserve capacity), and rotenone (0.5 μM) and antimycin A (2.5 μM) to inhibit complex I and complex III, respectively (to measure non-mitochondrial oxygen consumption). The values of OCR were normalized to mitochondrial DNA copy number, which was quantified by qPCR using the primers referenced above. Data analysis was performed using DatLab7 (Oroboros, Austria) software."}, "colorectal cancer cells [3]": {"test_system": "colorectal cancer cells", "assay": "Oxidative stress (CellROX Deep Red)", "protocol": "(§1) Cancer cells (1 × 10^3) were cultured in 8-well collagen IV Ibidi chamber slides and treated with DMSO or NK-A 17E-233I (25 µM) for 24 h. The media was replaced with fresh media containing 100 nM MitoTracker Red dye to measure ΔΨm (1 mM stock; #M7512; Thermo Fisher Scientific) and 5 µM CellROX Deep Red Reagent to assess oxidative stress levels (2.5 mM stock; #C10422; Thermo Fisher Scientific) for 45 min. The cells were then fixed with 4% methanol-free PFA, washed with PBS, and mounted with Ibidi mounting medium containing 4',6-diamidino-2-phenylindole (DAPI) prior to imaging.\n(§2) The density of γ-H2AX, Rad51, ΔΨm, and oxidative stress in cancer cells was measured as described in [32], utilizing custom macros available as open access at Zenodo (https://zenodo.org/records/8387899) to obtain raw intensities and individual cell area."}, "colorectal cancer cells [4]": {"test_system": "colorectal cancer cells", "assay": "DNA damage immunostaining (γ-H2AX, Rad51)", "details": "25 µM, 24 h", "protocol": "To evaluate DNA damage, cancer cells (1 × 10^3) were cultured in 8-well collagen IV Ibidi chamber slides (#80,822; Ibidi) for 24 h, treated with DMSO or NK-A 17E-233I (25 µM) for an additional 24 h, and then fixed. For assessing the integrity of the cytoskeleton, neuronal cells (BFCNs) were cultured on coverslips for 14 days, while non-neuronal cells (cancer cells) were cultured on coverslips for 24 h. Both neuronal and non-neuronal cells were treated with DMSO or NK-A 17E-233I (1 µM) for 24 h, fixed, and permeabilized as described in [21]. Samples were then blocked (non-neuronal cells with 3% BSA in PBS-T and neuronal cells with 10% BSA in PBS-T) and incubated overnight at 4 °C with the appropriate primary antibodies. Following this, samples were washed with PBS-T and incubated for 1 h with Alexa-488 Phalloidin (#A12379; Invitrogen-ThermoFisher Scientific) to visualize F-actin, along with the corresponding secondary antibodies. The cells were mounted with Ibidi mounting medium containing 4',6-diamidino-2-phenylindole (DAPI, #50011; Ibidi) prior to imaging. […]\nas §2"}, "colorectal cancer cells [5]": {"test_system": "colorectal cancer cells", "assay": "Mitochondrial membrane potential (MitoTracker Red)", "protocol": "as §1, §2"}, "[6]": {"details": "different cancer cell lines (HT-29), 25 µM"}}}
{"smiles": "COc1cc(C)c(Oc2cc(C)cc(O)c2O)c(O)c1", "note": "[NK-A 17E-233I]", "values": [{"measurement": "cell proliferation", "setting": "colorectal cancer cells [1]; 25 µM, over time", "value": "reduced"}, {"measurement": "growth inhibition in the presence of physiological uridine", "setting": "colorectal cancer cells [1]; SW620, 25 µM, 24 h, 5 µM and 20 µM uridine", "value": "did not mitigate the growth inhibitory effects"}, {"measurement": "active caspase-3 staining", "setting": "colorectal cancer cells [2]", "value": "significantly increased"}, {"measurement": "maximal respiration", "setting": "SW620 cells; 25 µM", "value": "significantly decreased"}, {"measurement": "basal and ATP-linked respiration in intact cells", "setting": "SW620 cells; NK-A 17E-233I 25 µM, Brequinar 100 µM", "value": "retained basal respiration"}, {"measurement": "ROS levels", "setting": "colorectal cancer cells [3]; HCT116, 25 µM, 24 h", "value": "significantly decreased"}, {"measurement": "ROS levels", "setting": "colorectal cancer cells [3]; [6]", "value": "without significant effect"}, {"measurement": "intensity of γ-H2AX and Rad51", "setting": "colorectal cancer cells [4]", "value": "significant increase"}, {"measurement": "mitochondrial membrane potential (ΔΨm)", "setting": "colorectal cancer cells [5]; HCT116, 25 µM, 24 h", "value": "significantly decreased"}, {"measurement": "mitochondrial membrane potential (ΔΨm)", "setting": "colorectal cancer cells [5]; [6]", "value": "decreased"}]}
